We go through one substance from patent publication US20050048020A1, “Novel topical delivery system for plant derived anti-irritants” (priority 2003, published 2005).

Series [1] in a line: Photobleaching of lycopenes in mineral oil. The format is physicochemical. The following applies: 0.1% in Mineral Oil, visible light and oxygen, FIG. 1. From the text: FIG. 1A is a graph illustrating the effects of photobleaching of lycopenes dissolved in mineral oil, over time.
The principal plant actives under development are the hydrophobic plant actives derived from carrot extracts (carotenes) and tomato paste (lycopenes). Both actives are known anti-cancer agents and regulators of epithelial homeostasis. Their role in epidermopoeisis and skin care is still under investigation. For both materials, extracts have been prepared and enriched by sequential extraction with ethyl alcohol and organic solvents. These extracts are then dried to a powder form and solubilized in Mineral Oil. A clear necessity for the preparation of such formulations is to prevent the photo-bleaching that occurs in mineral oil solutions exposed to visible light and oxygen This may typically be accomplished by addition of mineral oil solutions of Vitamin E (0.1%). […] Similar results have been obtained with the addition of Vitamin E to prevent the photo-bleaching of carotenes derived from Carrot Extracts.

Series [2] can be described thus: DPPH* radical antioxidant test of plant extracts. The following applies: DPPH* assay, reference; read-out: EC50 of Vitamin E. In kind it is biochemical.

As to Tocopherol [Vitamin E], in series [1], the “effect on photo-bleaching of lycopenes” value is on record as “photo-protective effect”. For the same substance, the EC50 in series [2] turned out to be 46 µM.
